Our source for the Activity values is ChEMBL document CHEMBL4130638, “Discovery of the Polyamine Conjugate with Benzo[ cd]indol-2(1 H)-one as a Lysosome-Targeted Antimetastatic Agent” (J Med Chem, 2018).

Data set [1] concerns HCT-116. The data set is described as follows: Induction of apoptosis in human HCT116 cells assessed as early apoptotic cells at 10 uM after 24 hrs in presence of autophagy inhibitor 3-MA by annexin V-FITC/propidium iodide staining based flow cytometry (reference value: 4.1%). It is filed as functional. On the technique in general: In flow cytometry, cells or beads pass a laser one at a time.

Data set [2] deals with HCT-116. The data set can be described thus: Induction of apoptosis in human HCT116 cells assessed as live cells at 10 uM after 24 hrs by annexin V-FITC/propidium iodide staining based flow cytometry (reference value: 89.97%). It is filed as functional.
The test system of data set [3] is Mus musculus. The data set is described as follows: Toxicity in Balb/c mouse implanted with mouse CT26 cells assessed as increase in liver weight at 1 mg/kg, iv for 14 consecutive days starting from day 8 post tumor implantation. It is filed as organism-based. Particulars: in vivo.
Data set [4] has as its system Mus musculus. The data set is described as follows: Toxicity in Balb/c mouse implanted with mouse CT26 cells assessed as changes in body weight at 1 mg/kg, iv for 14 consecutive days starting from day 8 post tumor implantation. Format: organism-based. The settings on record: in vivo.
For data set [5], the system named is HCT-116. The data set is described as follows: Induction of apoptosis in human HCT116 cells assessed as necrotic cells at 10 uM after 24 hrs in presence of autophagy inhibitor 3-MA by annexin V-FITC/propidium iodide staining based flow cytometry (reference value: 3.9%). Format: functional.

With `Cl.Cl.Cl.NCCCCNCCCCNCCCCN1C(=O)c2cccc3cccc1c23`, the Activity in the data set on HCT-116 [1] is given as 17.3%; in the data set on HCT-116 [2] it was 38.14%; in the data set on Mus musculus [3], “Toxic”; in the data set on Mus musculus [4], “Non-Toxic”; in the data set on HCT-116 [5], 7.21%.
